Measured values: patent US20050197331A1, “Novel anti-inflammatory and analgesic heterocyclic amidines that inhibit nitrogen oxide (NO) production” (ROTTAPHARM SPA, priority 2004, published 2005)
“And” between values parts separate entries of the source, which are not always exact repeats. Identical values can stand only once. Counter-ions that a name gives are not always drawn. Like-named read-outs stand apart in the source and are kept apart here.

How the values were obtained:
[1] = system: formation of NO measured as NO2^− (nitrite); test: Inhibition of NO (nitrite) formation in rabbit articular chondrocytes stimulated with IL-1β; format: cell-based
Description: (§1) a) The inhibitory activity on the formation of NO measured as NO2^− (nitrite) and PGE2 was studied in vitro on culture media of rabbit articular chondrocytes stimulated with the cytokine IL-1β (1 ng/ml) for 48 hours. For the preparation of the chondrocytes, the method described by Berenbaum et al. [FEBS Letters 340, 51-55 (1994)] was followed. Briefly, fragments of cartilage removed aseptically from the articular heads of rabbit shoulder, hip and knee were finely ground and digested at 37° C. in hyaluronidase, trypsin and collagenase solutions, giving, after filtration through sterile gauze and centrifugation at 600×g and suitable dilution with 10% DMEM-FCS 10%, a concentration per well of about 1×10^5 cells. The cells were maintained under these conditions until confluent (about 15 days), the medium being replaced every 3 days. At this point, the test products dissolved in the medium were added to each sample and, after 20 minutes, 350 μl of IL-1β were added, to give a final concentration of 1 ng/ml. The stimulation lasted 48 hours at 37° C. (incubation in air/7% CO2). A nitrite assay was subsequently performed on the cell supernatant, as described by Green et al. [Anal. Biochem. 126, 131-138 (1982)], and of PGE2 by RIA assay. The results obtained are shown in Table 3, in which is given, for a number of the compounds that are the subject of the invention and that are already illustrated in Table 1, the IC50, i.e. the concentration (micromolar) of antagonist capable of inhibiting the formation of nitrites and PGE2 by 50% relative to the control group, i.e. relative to the cells stimulated with IL-1β but without addition of antagonists.

[2] = system: rat paw injected with Zymosan; test: Zymosan-induced mechanical hyperalgesia in rats (Randall-Selitto); format: in vivo; conditions: os, 0-6 hours, dose increasing pain threshold by 30%
Description: (§2) This is a phlogogenic agent, consisting of a protein-glycoside complex, extracted from the cell walls of raw yeast, which is capable of inducing rapid degranulation of neutrophils, an increase in the production of TNF-α, interleukin-1 (IL-1), IL-6 and stimulation of NO generation by monocytes and macrophages (ZymosaN:Merck Index XIII ed. No. 10250, p. 1818).
(§3) The experiments consisted of sub-plantar intradermal injection into the animal of 4 mg of Zymosan suspended in 100 μl of sterile physiological solution, while the test compounds were administered orally 30 minutes before injection of the phlogogenic agent.
(§4) Measurement of the inflammation of the injected paw and of the consequent hyperalgesic effects was performed 2, 4 and 6 hours after the administration of Zymosan. The oedema was evaluated as the increase in volume of the injected paw within the period 0-6 hours, relative to the initial value of the volume of the paw, i.e. before the injection of Zymosan (basal value).
The hyperalgesia induced by the intradermal administration of Zymosan was evaluated on these animals and at the same times described previously for the evaluation of the oedema, using the Randall-Selitto method [Arch. Int. Pharmacodyn. 111, 409 (1957)].
When the animal makes a noise following the pain stimulus, the operator blocks the punch and records the force, expressed in grams, which was applied to the paw (the cut-off value is 500 grams). The difference in the meal chanical pain threshold between the basal value (generally about 230-250 grams) and that recorded at the indicated times after injection of the phlogogenic agent, generally 130-140 g for the control animals 6 hours after injection of the phlogogenic agent, is defined as mechanical hyperalgesia. In this case also, an ED30 was calculated, i.e. the dose in mg/kg capable of increasing the pain threshold by 30% (meal chanical hyperalgesia) in the animals treated with the test compounds relative to the group of control animals.

[3] = system: rat paw injected with Zymosan; test: Zymosan-induced paw oedema in rats; format: in vivo; conditions: for Anti-inflammatory activity (oedema) ED30 / Mean (Oedema + Analgesia) ED30: os, 0-6 hours; for Anti-inflammatory activity (oedema) ED30: dose reducing volume increase by 30%; for Mean (Oedema + Analgesia) ED30: mean of oedema and analgesia ED30; for anti-inflammatory and anti-hyperalgesic action (in words): Zymosan, administered orally, L-NAME up to maximum dose 50 mg/kg
Description: as §2, §3, §4
The measurements of the variation of the volume of the paw were recorded using a hydroplethysmometer (Mod. 7150, Basile, Italy), which consists of two plastic cuvettes containing a surfactant liquid, the larger one being used for immersion of the paw, connected to the smaller one which contains a transducer capable of recording small displacements of volume of the liquid used for the measurement. The paw is immersed in the cuvettes up to the tibiotarsal joint. The volume of liquid displaced by the paw indicates the magnitude of the inflammation.
For each test compound, at least three doses were used (generally 10, 20 and 40 mg/kg) with at least five animals per group×dose, so as to be able to calculate an ED30, i.e. the dose in mg/kg capable of reducing by 30% the Zymosan-induced volume increase, relative to the group of control animals, i.e. animals injected only with the phlogogenic agent and treated orally with distilled water.

PGE2 = test: Inhibition of PGE2 formation in rabbit articular chondrocytes stimulated with IL-1β (RIA); format: cell-based; conditions: for IC50: Oryctolagus cuniculus, Chondrocyte
Description: as §1

IL-6 = test: Inhibition of IL-6 expression (mRNA) in SW 1353 cells stimulated with IL-1β, Real Time PCR; format: cell-based; conditions: Homo sapiens, SW1353; SW 1353 cells stimulated for 6 hours with IL-1β
Source text: In practice, the RNA extracted from the cells was back-transcribed to c-DNA by means of a thermocycler (BioRad—“iCycler”) and subsequently amplified via the Real Time PCR technique using a probe and a primer specific for IL-6, from the company Applied Biosystem, and the thermocycler 7000 Sequence Detection System (Applied Biosystem).
The capacity […] may be considered as large, since the increase in the expression of this cytokine is associated with the physiopathology of various human diseases, for instance Crohn's disease, as described previously.

[4] = rabbit articular chondrocytes stimulated with IL-1β
[5] = rabbit articular chondrocytes, IL-1β 1 ng/ml, 48 hours, RIA, read-out: Inhibition % IC50 PGE2
[6] = Oryctolagus cuniculus, Chondrocyte, rabbit articular chondrocytes stimulated with IL-1β, read-out: IC50, production of NO
[7] = Oryctolagus cuniculus, Chondrocyte, rabbit articular chondrocytes, IL-1β 1 ng/ml, 48 hours, nitrite in supernatant, read-out: Inhibition % IC50 NO
[8] = rabbit articular chondrocytes stimulated with IL-1β, read-out: IC50, formation of PGE2

| Structure (SMILES) | IC50 (PGE2; [5]) | IC50 [1, 7] | melting point | IC50 (IL-6) | Analgesic activity (mechanical anti-hyperalgesia) ED30 [2] | Anti-inflammatory activity (oedema) ED30 [3] | Mean (Oedema + Analgesia) ED30 [3] | also measured |
| --- | --- | --- | --- | --- | --- | --- | --- | --- |
| Cc1ccc(-c2cc(C(F)(F)F)nn2-c2ccc(S(N)(=O)=O)cc2)cc1 [Celecoxib, reference compound] | 0.02 µM | – | – | – | 69.2 mg/kg | 79.4 mg/kg | 74.3 mg/kg | inhibiting the production of NO (in words) [1, 4]: entirely inactive |
| CC(=N)Nc1ccc2[nH]c(-c3ccccc3)cc2c1 [Compound 5, N-(2-phenyl-1H-indol-5-yl)acetamidine] | 1.2 µM | 3.4 µM | 217.7 to 220 °C and 218 to 220 °C | 1.5 to 6 µM | 19.3 mg/kg | 39.4 mg/kg | 29.4 mg/kg | IC50 [1, 6]: 3 to 8 µM; anti-inflammatory and anti-hyperalgesic action (in words) [3]: powerful anti-inflammatory and anti-hyperalgesic action |
| CC(=N)Nc1ccc2nc(-c3ccccc3)ncc2c1 [Compound 27, N-(2-phenylquinazolin-6-yl)acetamidine dihydrochloride] | 9 µM | 67.5 µM | – | 1.5 to 6 µM | 13.0 mg/kg | 24.6 mg/kg | 18.8 mg/kg | anti-inflammatory and anti-hyperalgesic action (in words) [3]: powerful anti-inflammatory and anti-hyperalgesic action |
| CC(=N)Nc1ccc2oc(-c3cccc(C(F)(F)F)c3)nc2c1 [Compound 31, N-[2-(3-trifluromethylphenyl)benzoxazol-5-yl]acetamidine] | 2.9 µM | 11.2 µM | 157.9 to 159.2 °C | – | – | – | – | – |
| CC(=N)Nc1ccc2oc(-c3ccc(C(F)(F)F)cc3)nc2c1 [Compound 32, N-[2-(4-trifluromethylphenyl)benzoxazol-5-yl]acetamidine] | 0.6 µM | 8.1 µM | 179.2 to 181 °C | – | – | – | – | – |
| CC(=N)Nc1ccc2oc(-c3ccc(Cl)c(Cl)c3)nc2c1 [Compound 34, N-[2-(3,4-dichlorophenyl)benzoxazol-5-yl]acetamidine] | 0.4 µM | 4.3 µM | 182 to 184 °C | – | – | – | – | IC50 [1, 6]: 3 to 8 µM; IC50 (PGE2; [8]): 0.3 to 0.8 µM |
| CC(=N)Nc1ccc2[nH]c(-c3ccc(Cl)c(Cl)c3)nc2c1 [Compound 35, N-[2-(3,4-dichlorophenyl)benzimidazol-5-yl]acetamidine] | 0.4 µM | – | 207.4 to 209 °C | – | – | – | – | inhibiting the production of NO (in words) [1, 4]: little activity; IC50 (PGE2; [8]): 0.3 to 0.8 µM; IC50, formation of PGE2 (PGE2; [4]): sub-micromolar |
| COC(=O)[C@@H](N)CCCNC(=N)N[N+](=O)[O-] [L-NAME, N^G-nitro-L-arginine methyl ester, reference compound] | – | – | – | – | IN (the compound L-NAME was entirely inactive up to the maximum dose administered (50 mg/kg)) | IN (the compound L-NAME was entirely inactive up to the maximum dose administered (50 mg/kg)) | IN (the compound L-NAME was entirely inactive up to the maximum dose administered (50 mg/kg)) | activity on NO production, fold less powerful than the best compounds of the invention [1, 4]: about 10 fold; IC50 ([1]; rabbit articular chondrocytes stimulated with IL-1β, read-out: IC50, production of NO): 71 µM; anti-inflammatory and anti-hyperalgesic action (in words) ([3]; 50 mg/kg): inactive; Inhibition % IC50 PGE2 (PGE2; rabbit articular chondrocytes, IL-1β 1 ng/ml, 48 hours, RIA): IN (IN = <25% inhibitory activity at 30 × 10^−6M) |

Further lines, with some results ahead:

| IC50 (PGE2; [5]) | IC50 [1, 7] | melting point | IC50 (IL-6) | Structure (SMILES) | Analgesic activity (mechanical anti-hyperalgesia) ED30 [2] | Anti-inflammatory activity (oedema) ED30 [3] | Mean (Oedema + Analgesia) ED30 [3] | also measured |
| --- | --- | --- | --- | --- | --- | --- | --- | --- |
| 2.4 µM | 6.5 µM | 161 to 162.1 °C | – | CC(=N)Nc1ccc2nc(-c3ccccc3)sc2c1 [Compound 1, N-(2-phenylbenzothiazol-6-yl)acetamidine] | 6.7 mg/kg | 12.6 mg/kg | 9.7 mg/kg | IC50 [1, 6]: 3 to 8 µM; anti-inflammatory and anti-hyperalgesic action (in words) [3]: powerful anti-inflammatory and anti-hyperalgesic action |
| 2.3 µM | 47.9 µM | 143 to 144.4 °C | 1.5 to 6 µM | CC(=N)Nc1ccc2nc(-c3ccccc3)ccc2c1 [Compound 8, N-(2-phenylquinol-6-yl)acetamidine] | 11.8 mg/kg | 19.8 mg/kg | 15.8 mg/kg | anti-inflammatory and anti-hyperalgesic action (in words) [3]: powerful anti-inflammatory and anti-hyperalgesic action |
| 1.2 µM | 6.2 µM | 188.4 to 189.8 °C | 1.5 to 6 µM | CC(=N)Nc1ccc2sc(-c3ccccc3C)nc2c1 [Compound 18, N-[2-(2-methylphenyl)benzothiazol-5-yl]acetamidine] | – | – | – | IC50 [1, 6]: 3 to 8 µM |
| 3.2 µM | 28.6 µM | 171.2 to 173.4 °C | 1.5 to 6 µM | CC(=N)Nc1ccc2oc(-c3ccccc3)nc2c1 [Compound 29, N-(2-phenylbenzoxazol-5-yl)acetamidine] | – | – | – | – |
| 13.8 µM | 47 µM | 157.9 to 159.2 °C | – | CC(=N)Nc1ccc2oc(-c3ccccc3F)nc2c1 [Compound 33, N-[2-(2-fluorophenyl)benzoxazol-5-yl]acetamidine] | – | – | – | – |
| 2.8 µM | 32.1 µM | 190.5 to 192.8 °C | – | COc1ccccc1-c1nc2cc(NC(C)=N)ccc2[nH]1 [Compound 37] | – | – | – | – |
| 9.9 µM | 199 µM | 154 to 158 °C | – | CC(=N)Nc1ccc2[nH]c(-c3ccccc3C)nc2c1 [Compound 39, N-[2-(2-methylphenyl)benzimidazol-5-yl]acetamidine] | – | – | – | – |
| 5.1 µM | 42.9 µM | 176.3 to 177.8 °C | – | CC(=N)Nc1ccc2nc(-c3ccccc3)oc2c1 [Compound 42, N-(2-phenylbenzoxazol-6-yl)acetamidine] | – | – | – | – |
